Each block holds one compound with its values, some of them ahead of it.
How the values were obtained:
Ephrin type-B receptor 4 = Ephrin type-B receptor 4 (Homo sapiens, UniProt P54760); assay: Affinity Biochemical interaction (Microscale thermophoresis (MST) assay) EUB0000143b EPHB4; design: mode of action Inhibitor, recommended concentration 100 nM
[1] = biological target: Transient receptor potential cation channel subfamily A member 1 (Homo sapiens, UniProt O75762); assay: Affinity Biochemical interaction (FLIPR-based Ca2+ assay (activated by 30 µM AITC)) EUB0000308b TRPA1; design: mode of action Antagonist, recommended concentration 1 uM
[2] = biological target: Histone acetyltransferase p300 (Homo sapiens, UniProt Q09472)
[3] = biological target: Methionine aminopeptidase 2 (Homo sapiens, UniProt P50579); assay: Affinity Biochemical interaction (Biochemical activity assay (addition of Mn)) EUB0000303b METAP2; design: mode of action Inhibitor, recommended concentration 1 uM
[4] = biological target: Tyrosine-protein kinase Mer (Homo sapiens, UniProt Q12866)
[5] = biological target: Oxidized purine nucleoside triphosphate hydrolase (Homo sapiens, UniProt P36639); assay: Affinity Biochemical interaction (PPiLight Biochemical Assay (full-length human NUDT1)) EUB0000587a NUDT1
[6] = biological target: BMP-2-inducible protein kinase (Homo sapiens, UniProt Q9NSY1); assay: Affinity Biochemical interaction (Competition binding assay) EUB0000166b BMP2K; design: mode of action Negative control for SGC-AAK1-1, recommended concentration 1 uM
[7] = biological target: AP2-associated protein kinase 1 (Homo sapiens, UniProt Q2M2I8); assay: Affinity Biochemical interaction (Competition binding assay) EUB0000166b AAK1; design: mode of action Negative control for SGC-AAK1-1, recommended concentration 1 uM
[8] = biological target: Discoidin domain-containing receptor 2 (Homo sapiens, UniProt Q16832); assay: Affinity Biochemical interaction (Radiometric assay (10 µM ATP, Reaction Biology)) EUB0000156b DDR2; design: mode of action Negative control for DDR-TRK-1 (D2202-1), recommended concentration 1 uM
[9] = biological target: High affinity nerve growth factor receptor (Homo sapiens, UniProt P04629); assay: Affinity Biochemical interaction (Radiometric assay (10 µM ATP, Reaction Biology)) EUB0000156b NTRK1; design: mode of action Negative control for DDR-TRK-1 (D2202-1), recommended concentration 1 uM
[10] = biological target: Epithelial discoidin domain-containing receptor 1 (Homo sapiens, UniProt Q08345); assay: Affinity Biochemical interaction (Radiometric assay (10 µM ATP, Reaction Biology)) EUB0000156b DDR1; design: mode of action Negative control for DDR-TRK-1 (D2202-1), recommended concentration 1 uM
[11] = biological target: NT-3 growth factor receptor (Homo sapiens, UniProt Q16288); assay: Affinity Biochemical interaction (Radiometric assay (10 µM ATP, Reaction Biology)) EUB0000156b NTRK3; design: mode of action Negative control for DDR-TRK-1 (D2202-1), recommended concentration 1 uM
[12] = biological target: Histone acetyltransferase KAT2B (Homo sapiens, UniProt Q92831); assay: Affinity Biochemical interaction (BROMOscan assay (DiscoverX)) EUB0000218c KAT2B; design: mode of action Inhibitor, recommended concentration 1 uM
[13] = biological target: Dual specificity protein kinase CLK2 (Homo sapiens, UniProt P49760); assay: Affinity Biochemical interaction (NanoBRET assay (in HEK293T cells)) EUB0000009b CLK2; type: cell-based; design: mode of action Negative control for MU1210, recommended concentration 1 uM
[14] = biological target: Dual specificity protein kinase CLK4 (Homo sapiens, UniProt Q9HAZ1); assay: Affinity Biochemical interaction (NanoBRET assay (in HEK293T cells)) EUB0000009b CLK4; type: cell-based; design: mode of action Negative control for MU1210, recommended concentration 1 uM
[15] = biological target: Dual specificity protein kinase CLK1 (Homo sapiens, UniProt P49759); assay: Affinity Biochemical interaction (NanoBRET assay (in HEK293T cells)) EUB0000009b CLK1; type: cell-based; design: mode of action Negative control for MU1210, recommended concentration 1 uM
[16] = Affinity Biochemical interaction (FLIPR assay) EUB0000337aCl P2RY14
Protein AF-9 [17] = biological target: T1, Protein AF-9 (Homo sapiens, UniProt P42568)
T1 sequence (P42568 whole entry): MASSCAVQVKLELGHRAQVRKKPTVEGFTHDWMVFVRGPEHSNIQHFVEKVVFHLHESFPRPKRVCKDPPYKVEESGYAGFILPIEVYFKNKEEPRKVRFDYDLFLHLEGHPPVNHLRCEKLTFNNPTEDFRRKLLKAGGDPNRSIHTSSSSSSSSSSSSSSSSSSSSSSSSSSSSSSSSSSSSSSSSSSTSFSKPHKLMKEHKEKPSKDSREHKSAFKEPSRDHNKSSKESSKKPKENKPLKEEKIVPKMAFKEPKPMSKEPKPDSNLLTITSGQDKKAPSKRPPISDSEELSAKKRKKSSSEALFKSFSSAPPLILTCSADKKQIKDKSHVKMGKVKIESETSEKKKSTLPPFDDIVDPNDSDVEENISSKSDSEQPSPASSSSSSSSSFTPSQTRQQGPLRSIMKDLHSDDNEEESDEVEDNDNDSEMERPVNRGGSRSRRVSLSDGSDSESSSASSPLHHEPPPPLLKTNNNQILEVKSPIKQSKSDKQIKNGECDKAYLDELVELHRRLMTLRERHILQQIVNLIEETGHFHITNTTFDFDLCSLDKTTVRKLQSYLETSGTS

[18] = biological target: Alpha-1D adrenergic receptor (Homo sapiens, UniProt P25100); assay: Affinity Biochemical interaction (Binding assay) EUB0000300bCl ADRA1D; design: mode of action Antagonist, recommended concentration 1 uM
[19] = biological target: RAC-alpha serine/threonine-protein kinase (Homo sapiens, UniProt P31749); assay: Affinity Biochemical interaction (HTFR assay) EUB0000721a AKT1
[20] = biological target: Nucleosome-remodeling factor subunit BPTF (Homo sapiens, UniProt Q12830); assay: Affinity Biochemical interaction (BioLayer Interferometry assay (BLI)) EUB0000254b BPTF; design: mode of action Negative control for NVS-BPTF-1, recommended concentration 1 uM
[21] = biological target: Peripheral plasma membrane protein CASK (Homo sapiens, UniProt O14936); assay: Affinity Biochemical interaction (Isothermal titration calorimetry (ITC)) EUB0000723a CASK; design: mode of action Inhibitor, recommended concentration 1 uM
Protein AF-9 [22] = biological target: T1, Protein AF-9; assay: Affinity Biochemical interaction (HTRF-based inhibition assay) EUB0000732a MLLT3; design: mode of action Negative control for PFI-6, recommended concentration 1 uM
Protein ENL = Protein ENL (Homo sapiens, UniProt Q03111); assay: Affinity Biochemical interaction (HTRF-based inhibition assay) EUB0000732a MLLT1; design: mode of action Negative control for PFI-6, recommended concentration 1 uM
Chain of Protein ENL (Q03111 whole entry): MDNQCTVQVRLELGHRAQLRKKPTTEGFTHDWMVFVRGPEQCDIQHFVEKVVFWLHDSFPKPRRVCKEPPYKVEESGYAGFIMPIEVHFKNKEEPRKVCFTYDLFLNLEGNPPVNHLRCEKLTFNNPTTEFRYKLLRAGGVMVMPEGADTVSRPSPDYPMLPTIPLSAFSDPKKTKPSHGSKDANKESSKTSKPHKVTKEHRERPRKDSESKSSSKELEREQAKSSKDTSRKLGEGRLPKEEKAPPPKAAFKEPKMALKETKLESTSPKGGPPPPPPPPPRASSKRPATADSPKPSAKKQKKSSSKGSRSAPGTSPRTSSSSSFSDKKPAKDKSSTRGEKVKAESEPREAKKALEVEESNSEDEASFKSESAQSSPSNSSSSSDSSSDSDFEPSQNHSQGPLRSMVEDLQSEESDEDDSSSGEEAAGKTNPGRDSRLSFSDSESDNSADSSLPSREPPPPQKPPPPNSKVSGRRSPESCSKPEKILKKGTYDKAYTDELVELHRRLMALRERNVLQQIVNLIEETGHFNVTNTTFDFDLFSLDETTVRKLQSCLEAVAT

Chain of Dual specificity protein kinase CLK4 (Q9HAZ1 whole entry): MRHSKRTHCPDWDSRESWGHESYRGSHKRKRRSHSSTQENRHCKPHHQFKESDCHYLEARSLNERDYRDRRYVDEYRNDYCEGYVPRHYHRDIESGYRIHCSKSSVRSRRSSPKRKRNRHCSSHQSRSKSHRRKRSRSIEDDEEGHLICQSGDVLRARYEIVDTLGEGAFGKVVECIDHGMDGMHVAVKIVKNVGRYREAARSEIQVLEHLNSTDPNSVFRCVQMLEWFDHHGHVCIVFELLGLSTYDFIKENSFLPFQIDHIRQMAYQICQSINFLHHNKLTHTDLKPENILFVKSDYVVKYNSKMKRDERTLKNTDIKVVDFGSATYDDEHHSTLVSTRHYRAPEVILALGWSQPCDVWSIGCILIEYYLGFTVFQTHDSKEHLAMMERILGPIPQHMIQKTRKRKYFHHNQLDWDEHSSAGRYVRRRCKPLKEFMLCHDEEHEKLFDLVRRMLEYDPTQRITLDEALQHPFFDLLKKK
Chain of Peripheral plasma membrane protein CASK (O14936 whole entry): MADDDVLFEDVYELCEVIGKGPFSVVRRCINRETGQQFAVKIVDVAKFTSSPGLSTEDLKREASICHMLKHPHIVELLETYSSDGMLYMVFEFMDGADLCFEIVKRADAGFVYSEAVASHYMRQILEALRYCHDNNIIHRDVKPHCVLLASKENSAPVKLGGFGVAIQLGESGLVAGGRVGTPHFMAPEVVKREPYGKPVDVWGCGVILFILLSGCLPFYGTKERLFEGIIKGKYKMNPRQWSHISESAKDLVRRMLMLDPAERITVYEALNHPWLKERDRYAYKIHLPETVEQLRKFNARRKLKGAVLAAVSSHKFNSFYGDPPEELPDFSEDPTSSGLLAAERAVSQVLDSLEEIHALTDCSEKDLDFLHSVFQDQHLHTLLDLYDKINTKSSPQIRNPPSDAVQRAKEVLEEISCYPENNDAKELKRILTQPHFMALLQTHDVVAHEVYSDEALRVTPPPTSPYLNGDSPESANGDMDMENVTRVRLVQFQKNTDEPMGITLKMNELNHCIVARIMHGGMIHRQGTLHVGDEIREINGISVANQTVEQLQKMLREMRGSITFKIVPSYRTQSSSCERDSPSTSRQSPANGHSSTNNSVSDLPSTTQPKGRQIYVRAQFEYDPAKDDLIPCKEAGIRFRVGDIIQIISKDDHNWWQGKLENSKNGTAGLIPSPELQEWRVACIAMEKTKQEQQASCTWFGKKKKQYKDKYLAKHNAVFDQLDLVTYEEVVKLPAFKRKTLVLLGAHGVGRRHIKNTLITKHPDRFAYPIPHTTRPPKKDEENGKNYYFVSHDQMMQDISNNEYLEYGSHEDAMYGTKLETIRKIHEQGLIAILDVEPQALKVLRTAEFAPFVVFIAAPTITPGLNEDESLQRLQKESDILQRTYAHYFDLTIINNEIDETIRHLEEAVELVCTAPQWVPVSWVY
Chain of Methionine aminopeptidase 2 (P50579 whole entry): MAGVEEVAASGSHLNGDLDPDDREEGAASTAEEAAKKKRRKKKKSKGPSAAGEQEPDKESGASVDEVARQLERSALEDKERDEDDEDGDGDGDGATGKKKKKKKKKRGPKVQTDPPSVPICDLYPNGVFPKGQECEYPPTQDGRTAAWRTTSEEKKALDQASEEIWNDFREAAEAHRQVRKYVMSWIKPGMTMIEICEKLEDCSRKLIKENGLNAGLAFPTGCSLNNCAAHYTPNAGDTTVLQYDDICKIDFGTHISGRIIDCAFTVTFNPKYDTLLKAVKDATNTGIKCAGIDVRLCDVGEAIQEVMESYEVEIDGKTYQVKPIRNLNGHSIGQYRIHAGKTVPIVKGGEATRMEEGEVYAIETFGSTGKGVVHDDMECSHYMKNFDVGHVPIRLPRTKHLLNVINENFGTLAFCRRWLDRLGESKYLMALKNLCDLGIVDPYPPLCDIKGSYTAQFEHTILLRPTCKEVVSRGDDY
Chain of Histone acetyltransferase KAT2B (Q92831 whole entry): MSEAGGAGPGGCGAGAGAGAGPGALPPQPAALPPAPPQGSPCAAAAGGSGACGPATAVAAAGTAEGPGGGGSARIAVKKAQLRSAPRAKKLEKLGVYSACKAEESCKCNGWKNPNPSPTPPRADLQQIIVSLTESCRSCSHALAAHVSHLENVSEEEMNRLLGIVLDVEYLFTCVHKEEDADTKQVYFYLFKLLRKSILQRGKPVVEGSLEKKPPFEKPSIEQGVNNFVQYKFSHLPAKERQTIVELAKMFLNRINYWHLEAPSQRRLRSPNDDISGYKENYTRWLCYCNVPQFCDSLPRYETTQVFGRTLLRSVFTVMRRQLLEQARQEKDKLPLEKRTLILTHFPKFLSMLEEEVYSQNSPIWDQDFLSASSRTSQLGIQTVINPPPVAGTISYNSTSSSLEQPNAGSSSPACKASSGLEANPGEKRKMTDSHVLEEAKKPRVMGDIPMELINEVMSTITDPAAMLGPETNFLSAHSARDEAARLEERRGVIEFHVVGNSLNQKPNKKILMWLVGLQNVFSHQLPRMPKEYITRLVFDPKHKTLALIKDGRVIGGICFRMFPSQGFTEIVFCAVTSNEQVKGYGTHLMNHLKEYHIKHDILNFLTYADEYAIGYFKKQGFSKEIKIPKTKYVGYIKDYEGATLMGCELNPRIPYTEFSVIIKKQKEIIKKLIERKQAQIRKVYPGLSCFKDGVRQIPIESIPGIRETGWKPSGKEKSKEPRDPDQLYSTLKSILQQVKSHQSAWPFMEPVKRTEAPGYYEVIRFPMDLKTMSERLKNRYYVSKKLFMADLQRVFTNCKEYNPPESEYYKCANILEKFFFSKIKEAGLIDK
Chain of Discoidin domain-containing receptor 2 (Q16832 whole entry, the tested form may be a part): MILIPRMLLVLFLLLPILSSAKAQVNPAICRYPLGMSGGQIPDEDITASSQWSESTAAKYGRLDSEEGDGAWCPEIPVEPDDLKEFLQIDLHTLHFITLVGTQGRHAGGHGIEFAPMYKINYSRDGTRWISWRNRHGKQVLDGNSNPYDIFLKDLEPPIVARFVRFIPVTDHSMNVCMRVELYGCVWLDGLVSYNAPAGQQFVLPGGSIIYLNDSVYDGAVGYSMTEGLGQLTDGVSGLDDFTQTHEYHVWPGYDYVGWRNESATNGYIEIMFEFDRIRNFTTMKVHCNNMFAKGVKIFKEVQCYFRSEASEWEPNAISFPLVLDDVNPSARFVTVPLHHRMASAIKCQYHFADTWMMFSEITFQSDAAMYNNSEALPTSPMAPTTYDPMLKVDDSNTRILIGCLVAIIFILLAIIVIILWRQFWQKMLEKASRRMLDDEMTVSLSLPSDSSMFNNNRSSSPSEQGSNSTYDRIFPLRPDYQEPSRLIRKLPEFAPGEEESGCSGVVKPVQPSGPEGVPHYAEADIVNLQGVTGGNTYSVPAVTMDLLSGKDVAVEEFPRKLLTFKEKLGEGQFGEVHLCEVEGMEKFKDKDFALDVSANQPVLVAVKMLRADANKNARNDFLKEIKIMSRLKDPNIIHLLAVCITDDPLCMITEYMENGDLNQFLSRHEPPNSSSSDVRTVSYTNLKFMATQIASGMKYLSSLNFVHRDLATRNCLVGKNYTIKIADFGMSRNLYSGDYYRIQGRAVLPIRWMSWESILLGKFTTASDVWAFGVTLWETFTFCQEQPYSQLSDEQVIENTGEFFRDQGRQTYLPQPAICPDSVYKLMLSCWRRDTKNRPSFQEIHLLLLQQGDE
Chain of NT-3 growth factor receptor (Q16288 whole entry): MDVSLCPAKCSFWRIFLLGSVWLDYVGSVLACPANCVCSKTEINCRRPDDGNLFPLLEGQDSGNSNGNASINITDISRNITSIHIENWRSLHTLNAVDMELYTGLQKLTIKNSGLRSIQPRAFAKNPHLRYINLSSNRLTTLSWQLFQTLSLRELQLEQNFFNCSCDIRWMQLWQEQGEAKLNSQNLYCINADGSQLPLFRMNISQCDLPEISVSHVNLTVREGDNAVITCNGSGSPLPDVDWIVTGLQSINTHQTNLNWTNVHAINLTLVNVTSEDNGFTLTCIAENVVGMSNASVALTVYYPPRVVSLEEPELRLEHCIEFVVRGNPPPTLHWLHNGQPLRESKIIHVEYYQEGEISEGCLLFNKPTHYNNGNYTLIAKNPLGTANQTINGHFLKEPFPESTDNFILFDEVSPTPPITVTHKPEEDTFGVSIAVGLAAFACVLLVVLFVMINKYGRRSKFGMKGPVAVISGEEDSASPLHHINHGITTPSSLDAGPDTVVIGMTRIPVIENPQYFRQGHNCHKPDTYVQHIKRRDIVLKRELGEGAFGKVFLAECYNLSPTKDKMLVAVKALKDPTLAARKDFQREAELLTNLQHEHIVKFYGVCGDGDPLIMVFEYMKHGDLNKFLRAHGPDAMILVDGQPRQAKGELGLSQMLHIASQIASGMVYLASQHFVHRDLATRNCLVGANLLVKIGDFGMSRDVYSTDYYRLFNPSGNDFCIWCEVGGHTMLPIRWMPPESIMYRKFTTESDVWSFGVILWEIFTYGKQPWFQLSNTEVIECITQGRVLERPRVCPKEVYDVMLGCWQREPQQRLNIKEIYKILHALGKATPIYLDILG

Structure (SMILES): Cc1ccc(C(=O)Nc2cccc(C(F)(F)F)c2)cc1Nc1nc(-c2cccnc2)nc2c1cnn2C
IC50 (Ephrin type-B receptor 4): 6 nM

Structure (SMILES): CCC(=O)N1CCOc2c(cc(-c3ccc(OC)c(OC)c3)cc2OC[C@H]2CCCN(C)C2)C1
Kd [2]: 625 nM

Structure (SMILES): Cc1nc(N2CC[C@H](O)C2)ncc1-c1cc(C(F)(F)F)cc2[nH]ncc12
IC50 [3]: 7 nM

Structure (SMILES): CCOc1cn(-c2ccc(F)cc2C)nc1C(=O)Nc1ccc(Oc2ccnc3cc(OC)c(OC)cc23)c(F)c1
IC50 [4]: 5 nM

Structure (SMILES): CCNC(=O)c1cc2c(N3CCOC[C@@H]3C)ccnc2n1C
IC50 [5]: > 20000 nM

Structure (SMILES): CN1CCN(Cc2cc(NC(=O)c3ccc4c(c3)CN(c3ccccc3)CC4)cc(C(F)(F)F)c2)CC1
IC50 [8]: > 10000 nM | IC50 [9]: 6250 nM | IC50 [10]: 1730 nM | IC50 [11]: 8100 nM

Structure (SMILES): Cc1c(C(=O)O)cc(-c2ccc(C3CCNCC3)cc2)c2ccc(-c3ccc(C(F)(F)F)cc3)cc12
IC50 [16]: 4380 nM

Structure (SMILES): C=CC(=O)Nc1ccc2[nH]c(=O)n(C3CCN(C(=O)c4ccc(-c5nc6cc[nH]c(=O)c6cc5-c5ccccc5)cc4)CC3)c2c1
IC50 [19]: 9200 nM

Structure (SMILES): Cc1c(Nc2ccc(S(=O)(=O)N3CCN(C)CC3)cc2F)nc2ccc(Nc3cnn(C4CC4)c3)cn2c1=O
Kd [20]: 1670 nM

Structure (SMILES): O=C(NCCCN1CCOC1=O)c1cnc(NCc2cc(Br)ccc2Br)nc1NC1CCCC1
Kd [21]: 22 nM

More lines, now with the values ahead:

IC50 [1]: 67 nM
Structure (SMILES): Clc1cccc(-c2nnnn2Cc2cccnc2)c1Cl

Kd [6]: > 10000 nM | Kd [7]: 8800 nM
Structure (SMILES): CC(C)C(=O)Nc1n[nH]c2cc(-c3cccc(NS(=O)(=O)C4CC4)c3)ccc12

IC50 [12]: 48 nM
Structure (SMILES): Cc1nnc2c3ccccc3c(N[C@@H](C)[C@H](c3ccccc3)N(C)C)nn12

Ki [13]: > 10000 nM | Ki [14]: > 10000 nM | Ki [15]: > 10000 nM
Structure (SMILES): Cn1cc(-c2ccc3occ(-c4ccccc4-c4ccccc4)c3n2)cn1

IC50 (Protein AF-9 [17]): 160 nM
Structure (SMILES): CN(C)C(=O)c1ccc(-c2cc(C(=O)N[C@@H]3CCc4ccccc43)no2)cc1O

Ki [18]: 1.6 nM
Structure (SMILES): C[C@@H](c1cccc(CN)c1)n1cc(Cl)cc(C(N)=O)c1=N

IC50 (Protein AF-9 [22]): > 30000 nM | IC50 (Protein ENL): > 30000 nM
Structure (SMILES): CN(C)C(=O)c1ccc(-c2cc(C(=O)N(C)C3CCCC3)no2)cc1O

From ChEMBL document CHEMBL5210307, “Affinity Biochemical Literature for EUbOPEN Chemogenomics Library wave 3” (2023)
